Results on 60 compounds are retold here after paper PMC7489219 (Molecular Brain, 2020).

Counter-ions that a name gives are not always drawn.

This assay has as its system T1, primary mouse cortical neurons.
T1 construct: primary cortical neurons, DIV 10
Nature of the assay: cells. The arrangement: Protection from NMDA-induced (30 uM, 10 min) neuronal death; Hoechst nuclear morphology by automated microscopy. To be noted: Cortical neurone, 20 h, read-out: % inhibition, inhibition of NMDA-induced cell death (protection score), 30 min pre-treatment. The method in brief: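 On DIV 10, primary mouse cortical neurons were given compound at 10 μM for 30 min at 37 °C, then 30 μM NMDA for 10 min, washed, and kept 20 h with compound. Dead cells were scored by nuclear morphology, and % protection was derived from survival relative to vehicle + NMDA and untreated controls.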

What is called inhibition is the change of the read-out against control, counted positive when it falls. For the compound `O=C(O)c1cc(O)c2c(c1)C(=O)c1cccc(O)c1C2=O` [Rhein (Monorhein)], the inhibition at 10 µM stood at 5.39%. On to `COc1cc(O)c2c(c1)C(=O)c1cc(C)cc(O)c1C2=O` [Rheochrysidin (Physcione)], for which the inhibition at 10 µM worked out at 18.7%. With `NC(=O)c1ncn([C@@H]2O[C@H](CO)[C@@H](O)[C@H]2O)n1` [Ribavirin (Copegus)] the figure was 12.3%; with `Cc1cc2nc3c(=O)[nH]c(=O)nc-3n(C[C@H](O)[C@H](O)[C@H](O)CO)c2cc1C` [Riboflavin (Vitamin B2)], 1.7%.

As for `CO[C@H]1/C=C/O[C@@]2(C)Oc3c(C)c(O)c4c(O)c(c5c(c4c3C2=O)=NC2(CCN(CC(C)C)CC2)N=5)NC(=O)/C(C)=C\C=C\[C@H](C)[C@H](O)[C@@H](C)[C@@H](O)[C@@H](C)[C@H](OC(C)=O)[C@@H]1C` [Rifabutin (Mycobutin)], the inhibition at 10 µM was -2.35%. As to `CO[C@H]1/C=C/O[C@@]2(C)Oc3c(C)c(O)c4c(O)c(c(/C=N/N5CCN(C6CCCC6)CC5)c(O)c4c3C2=O)NC(=O)/C(C)=C\C=C\[C@H](C)[C@H](O)[C@@H](C)[C@@H](O)[C@@H](C)[C@H](OC(C)=O)[C@@H]1C` [Rifapentine (Priftin)], the inhibition at 10 µM came out at 9.26%.

Consider `CO[C@H]1/C=C/O[C@@]2(C)Oc3c(C)c(O)c4c(O)c(c5c(nc6cc(C)ccn65)c4c3C2=O)NC(=O)/C(C)=C\C=C\[C@H](C)[C@H](O)[C@@H](C)[C@@H](O)[C@@H](C)[C@H](OC(C)=O)[C@@H]1C` [Rifaximin (Xifaxan)], for which the inhibition at 10 µM worked out at 1.93%.

Consider `Nc1nc2ccc(OC(F)(F)F)cc2s1` [Riluzole (Rilutek)], for which the inhibition at 10 µM amounted to 40.9%.

Turning to `O=P(O)(O)C(O)(Cc1cccnc1)P(=O)(O)O` [Risedronate sodium], the inhibition at 10 µM worked out at 4.5%. As to `Cc1nc2n(c(=O)c1CCN1CCC(c3noc4cc(F)ccc34)CC1)CCCC2` [Risperidone (Risperdal)], the inhibition at 10 µM amounted to 23.7%.

Consider `CC(C)c1nc(CN(C)C(=O)N[C@H](C(=O)N[C@@H](Cc2ccccc2)C[C@H](O)[C@H](Cc2ccccc2)NC(=O)OCc2cncs2)C(C)C)cs1` [Ritonavir], for which the inhibition at 10 µM was -1.84%. For `CN(C)CCc1c[nH]c2ccc(Cn3cncn3)cc12` [Rizatriptan Benzoate (Maxalt)], the inhibition at 10 µM is 14.3%. Consider `C=CC[N+]1([C@H]2C[C@H]3[C@@H]4CC[C@H]5C[C@H](O)[C@@H](N6CCOCC6)C[C@]5(C)[C@H]4CC[C@]3(C)[C@H]2OC(C)=O)CCCC1` [Rocuronium bromide], for which the inhibition at 10 µM is -0.727%.

On to `COc1cc2c(cc1OC)[C@@H]1Cc3ccc(OC)c(OC)c3CN1CC2` [Rotundine], for which the inhibition at 10 µM was -0.337%. On to `NC(=O)c1cn(Cc2c(F)cccc2F)nn1` [Rufinamide (Banzel)], for which the inhibition at 10 µM was -3.11%. For `O=c1c2ccccc2nc2n1CCc1c-2[nH]c2ccccc12` [Rutaecarpine (Rutecarpine)], the inhibition at 10 µM was determined as 5.35%. In the case of `C[C@@H]1O[C@@H](OC[C@H]2O[C@@H](Oc3c(-c4ccc(O)c(O)c4)oc4cc(O)cc(O)c4c3=O)[C@H](O)[C@@H](O)[C@@H]2O)[C@H](O)[C@H](O)[C@H]1O` [Rutin (Rutoside)] it was -3.76%; in that of `COc1ccc([C@H]2CNC(=O)C2)cc1OC1CCCC1` [S-(+)-Rolipram], -1.23%. Take `CC(C)(C)NCC(O)c1ccc(O)c(CO)c1` (stereo not drawn) [Salbutamol sulfate (Albuterol)]: the inhibition at 10 µM is -7.52%. For the compound `OCc1ccccc1O[C@@H]1O[C@H](CO)[C@@H](O)[C@H](O)[C@H]1O` [Salicin (Salicoside, Salicine)], the inhibition at 10 µM was -2.7%. With `OC[C@H]1O[C@@H](OCCc2ccc(O)cc2)[C@H](O)[C@@H](O)[C@@H]1O` [Salidroside (Rhodioloside)] the figure was 11.2%; with `C=C[C@](C)(O)CC[C@@H]1[C@@]2(C)CCCC(C)(C)[C@@H]2CC[C@@]1(C)O` [Sclareol], 23.8%. With `CC1(C)CCC[C@]2(C)[C@H]3CC(=O)O[C@]3(C)CC[C@@H]12` [Sclareolide (Norambreinolide)], the inhibition at 10 µM was 28.8%.

Consider `CN1[C@@H]2CC(OC(=O)[C@H](CO)c3ccccc3)C[C@H]1[C@@H]1O[C@@H]12` (stereo partly drawn) [Scopolamine hydrobromide], for which the inhibition at 10 µM is -0.0258%. With `c1cc2c(cc1[C@H]1OC[C@H]3[C@@H]1CO[C@@H]3c1ccc3c(c1)OCO3)OCO2` [Sesamin (Fagarol)], the inhibition at 10 µM came out at 15.7%. On to `O=C(O)C1=C[C@@H](O)[C@@H](O)[C@H](O)C1` [Shikimic acid (Shikimate)], for which the inhibition at 10 µM came out at 0.278%.

On to `CCCc1nn(C)c2c(=O)[nH]c(-c3cc(S(=O)(=O)N4CCN(C)CC4)ccc3OCC)nc12` [Sildenafil citrate], for which the inhibition at 10 µM was 4.4%. In the case of `COc1cc([C@H]2Oc3cc([C@H]4Oc5cc(O)cc(O)c5C(=O)[C@@H]4O)ccc3O[C@@H]2CO)ccc1O` [Silibinin (Silybin)], the inhibition at 10 µM stood at 8.03%.

For the compound `COc1cc([C@H]2Oc3ccc([C@H]4Oc5cc(O)cc(O)c5C(=O)[C@@H]4O)cc3O[C@@H]2CO)ccc1O` [Silymarin (Silybin B)], the inhibition at 10 µM was found to be 10%. In the case of `CCC(C)(C)C(=O)O[C@H]1C[C@@H](C)C=C2C=C[C@H](C)[C@H](CC[C@@H]3C[C@@H](O)CC(=O)O3)[C@H]21` [Simvastatin (Zocor)], the inhibition at 10 µM worked out at 2.21%. As to `O=C(O)C(O)Cc1ccc(O)c(O)c1` (stereo not drawn) [Sodium Danshensu], the inhibition at 10 µM was 6.44%. For `CCCC(=O)O` [Sodium butyrate], the inhibition at 10 µM was 0.412%. Turning to `O=C1C=CC[C@@H]2[C@H]3CCCN4CCC[C@@H](CN12)[C@@H]34` [Sophocarpine], the inhibition at 10 µM was found to be 0.911%. As for `CNC(=O)c1cc(Oc2ccc(NC(=O)Nc3ccc(Cl)c(C(F)(F)F)c3)cc2)ccn1` [Sorafenib (Nexavar)], the inhibition at 10 µM was -5.2%. With `OC[C@@H](O)[C@@H](O)[C@H](O)[C@@H](O)CO` [Sorbitol (Glucitol)] the figure was 3.24%; with `CC(C)NCC(O)c1ccc(NS(C)(=O)=O)cc1` (stereo not drawn) [Sotalol (Betapace)], -6.66%; with `CN[C@@H]1[C@H](O)[C@H](NC)[C@H]2O[C@@]3(O)C(=O)C[C@@H](C)O[C@H]3O[C@@H]2[C@H]1O` [Spectinomycin hydrochloride], -1.03%. As to `Cc1cn([C@H]2C=C[C@@H](CO)O2)c(=O)[nH]c1=O` [Stavudine], the inhibition at 10 µM turned out to be 6.33%. `CC[C@H](/C=C/[C@@H](C)[C@H]1CC[C@H]2[C@@H]3CC=C4C[C@@H](O)CC[C@]4(C)[C@H]3CC[C@]12C)C(C)C` [Stigmasterol (Stigmasterin)]: the inhibition at 10 µM is 4.26%. As for `Nc1ccc(S(=O)(=O)Nc2ncccn2)cc1` [Sulfadiazine], the inhibition at 10 µM came out at 17.4%. Turning to `COc1cnc(NS(=O)(=O)c2ccc(N)cc2)nc1` [Sulfameter (Bayrena)], the inhibition at 10 µM amounted to 28.2%. For the compound `Cc1cc(NS(=O)(=O)c2ccc(N)cc2)no1` [Sulfamethoxazole], the inhibition at 10 µM is -1.59%. As for `Nc1ccc(S(N)(=O)=O)cc1` [Sulfanilamide], the inhibition at 10 µM was 17.7%. `Cc1noc(NS(=O)(=O)c2ccc(N)cc2)c1C` [Sulfisoxazole]: the inhibition at 10 µM is -0.221%.

As to `CC1=C(CC(=O)O)c2cc(F)ccc2/C1=C\c1ccc([S+](C)[O-])cc1` (stereo not drawn) [Sulindac (Clinoril)], the inhibition at 10 µM is -5.67%.

Consider `CNS(=O)(=O)Cc1ccc2[nH]cc(CCN(C)C)c2c1` [Sumatriptan succinate], for which the inhibition at 10 µM turned out to be 8.05%.

As to `CCN(CC)CCNC(=O)c1c(C)[nH]c(/C=C2\C(=O)Nc3ccc(F)cc32)c1C` [Sunitinib Malate (Sutent)], the inhibition at 10 µM worked out at 1.4%. Turning to `CNCC(O)c1ccc(O)cc1` (stereo not drawn) [Synephrine (Oxedrine)], the inhibition at 10 µM was 3.83%. In the case of `CN1CC(=O)N2[C@H](c3ccc4c(c3)OCO4)c3[nH]c4ccccc4c3C[C@@H]2C1=O` [Tadalafil (Cialis)] it was 0.202%.

As for `CC/C(=C(\c1ccccc1)c1ccc(OCCN(C)C)cc1)c1ccccc1` [Tamoxifen Citrate (Nolvadex)], the inhibition at 10 µM was -8.21%. Consider `COc1ccc(-c2cc(=O)c3c(OC)c(OC)c(OC)c(OC)c3o2)cc1` [Tangeretin (Tangeritin)], for which the inhibition at 10 µM was -0.746%. As to `Cc1coc2c1C(=O)C(=O)c1c-2ccc2c1CCCC2(C)C` [Tanshinone IIA (Tanshinone B)], the inhibition at 10 µM worked out at 3.42%. With `Cc1coc2c1C(=O)C(=O)c1c-2ccc2c(C)cccc12` [Tanshinone I] the figure was -5.27%. With `NCCS(=O)(=O)O` [Taurine], the inhibition at 10 µM worked out at 8.63%. As to `O=C1c2c(O)cc(O)cc2O[C@H](c2ccc(O)c(O)c2)[C@H]1O` [Taxifolin (Dihydroquercetin)], the inhibition at 10 µM stood at 12.2%. Regarding `CCOC(=O)c1ccc(C#Cc2ccc3c(c2)C(C)(C)CCS3)nc1` [Tazarotene (Avage)], the inhibition at 10 µM worked out at 38.1%.

As to `Cc1cn([C@@H]2C[C@@H](O)[C@H](CO)O2)c(=O)[nH]c1=O` [Telbivudine (Sebivo, Tyzeka)], the inhibition at 10 µM was determined as 23.8%. With `CCCc1nc2c(C)cc(-c3nc4ccccc4n3C)cc2n1Cc1ccc(-c2ccccc2C(=O)O)cc1` [Telmisartan (Micardis)] the figure was 0.71%; with `CO[C@H]1C[C@@H]2CC[C@@H](C)[C@@](O)(O2)C(=O)C(=O)N2CCCC[C@H]2C(=O)O[C@H]([C@H](C)C[C@@H]2CC[C@@H](OC(=O)C(C)(CO)CO)[C@H](OC)C2)CC(=O)[C@H](C)/C=C(\C)[C@@H](O)[C@@H](OC)C(=O)[C@H](C)C[C@H](C)/C=C/C=C/C=C/1C` [Temsirolimus (Torisel)], 1.56%. Turning to `COc1cc([C@@H]2c3cc4c(cc3[C@@H](O[C@@H]3O[C@@H]5CO[C@@H](c6cccs6)O[C@H]5[C@H](O)[C@H]3O)[C@H]3COC(=O)[C@H]23)OCO4)cc(OC)c1O` [Teniposide (Vumon)], the inhibition at 10 µM was -0.429%.
